The text below walks through data of patent US20130243707A1, “TOPICAL COMPOSITIONS” (priority 2006, published 2013).

For series [1] the following is noted: cited from earlier work.
Series [2] in a line: Solubility of Drugs in single solvent alcohols. In kind it is physicochemical. As to the method: Briefly, the indicated NSAID was weighed and added to a beaker. To each beaker, incremental amounts of the indicated solvent was weighed and added. The beakers were sealed with aluminum foil and placed at room temperature or in a 35 C water bath for 20-30 minutes. They beakers were shaken frequently to mix the contents. After 20-30 minutes the solvent alcohols were examined. If a single phasic solution was not yet achieved, an additional aliquot of the solvent was added and the cycle was repeated until complete solvation had occurred.

The conditions of series [3]: cited from earlier work. The source holds these as a separate data set.
A short description of series [4]: Super-solvent water effect (maximum water before NSAID precipitates). The format is physicochemical. The conditions noted are these: for Super-solvent Effect: in %. As to the method:
Methods. […] These amounts are chosen based upon the solubility of one gram of NSAID and the amount of the single solvent alcohol for saturation. Next, water was added in step-wise manner to determine the maximum amount that can be added before any visible amount of the NSAID precipitated (i.e., the volume of water that can be added and yet remain single phasic).

In series [5] the test system is proliferation of lymphocytes in the draining lymph nodes. Kind of series: Local lymph node stimulation assay. The format is in vivo, CBA/J female mice. The conditions noted are these: positive control. As to the method: Compositions of Example 39 are subjected to a local lymph node stimulation assay in CBA/J female mice to determine if present compositions produce a hypersensitivity response as measured by the proliferation of lymphocytes in the draining lymph nodes. Ten groups of 5 mice each are used. Five groups are treated on the dorsal surface of both ears once per day for 3 days the compositions or with a positive control (35% hexylcinnamaldehyde (HCA)). On Day 6, the mice are injected intravenously (IV) with 20 μCi of ^3H-thymidine in sterile saline. Five hours later the mice are euthanized and the draining auricular lymph nodes are removed. […] A three-fold or greater increase in proliferative activity relative to the concurrent vehicle-treated control is considered a positive response. […] Since both of these stimulation indices are greater than 3, the positive controls indeed produced a positive response.

A short description of series [6]: Prodrug (ester) formation upon storage, HPLC. The format is physicochemical. The conditions noted are these: for rate of prodrug generation: 2% propylene glycol, linear for at least the first 26 days. Here is the method: Next, the peak was characterized in terms of retention position, UV spectrum and mass spectroscopy response. In addition, isolates of the peak were collected from the chromatograph system employed for liquid chromatography-mass spectroscopy. […] The solution was centrifuged and the supernatant collected for analysis. Chromatography was conducted as follows: • Pumps: Hewlett Packard Model 1100 Binary Systems • Solvent A: Water • Solvent B: Acetonitrile • Gradient: […] Sequential detection was performed by UV absorbance using an HP diode array detector followed by ESI-MS […] using a Sciex O-Star/Pulsar quadrupole-TOF mass spectrometer operating in either the positive and negative ion modes. […] At acidic pH (e.g. […]), prodrug formation was relatively independent of Drug concentration. However, at pH 5, prodrug formation seemed to be first order (i.e. dependant upon the Drug concentration).

[7] abbreviates: Flurbiprofen 2 gm, EtOH 2 gm, IPA 3 gm.
The mark [8] stands for this setting: Flurbiprofen 2 gm, PEG 2 gm, EtOH 2 gm.
Setting [9] is: Flurbiprofen 2 gm, PEG 2 gm, IPA 3 gm.
The mark [10] stands for this setting: Flurbiprofen 2 gm, PG 6 gm, EtOH 2 gm.
Where [11] appears, read: Flurbiprofen 2 gm, PG 6 gm, IPA 3 gm.
[12] abbreviates: Flurbiprofen 2 gm, PG 6 gm, PEG 2 gm.
Setting [13] is: Flurbiprofen 3 gm, PEG 2 gm, EtOH 2 gm, IPA 3 gm.
[14] abbreviates: Flurbiprofen 3 gm, PG 6 gm, EtOH 2 gm, IPA 3 gm.
Setting [15] is: Flurbiprofen 3 gm, PG 6 gm, PEG 2 gm, EtOH 2 gm.
Where [16] appears, read: Flurbiprofen 3 gm, PG 6 gm, PEG 2 gm, IPA 3 gm.
[17] abbreviates: Flurbiprofen 4 gm, PG 6 gm, PEG 2 gm, EtOH 2 gm, IPA 3 gm.

The structures appear in SMILES notation.

For orientation: pKa means the pH at which an ionisable group is half protonated. As a reminder, the Log P is a log measure of how a compound divides between an organic and an aqueous phase. Turning to `CC(C(=O)O)c1ccc(-c2ccccc2)c(F)c1` (stereo not shown) [Flurbiprofen], the pKa in series [1] was 4.14. The “Maximum Drug Concentration in single alcohol: EtOH” value is reported as 33.33 in series [2] (Solubility at 35 C) and 16.67 in series [2] (Solubility at Room Temperature). The “Maximum Drug Concentration in single alcohol: IPA” value is on record as 25.00 in series [2] (Solubility at 35 C) and 14.29 in series [2] (Solubility at Room Temperature). Besides, the results for the “Maximum Drug Concentration in single alcohol: PEG” value in series [2] (Solubility at 35 C) and in series [2] (Solubility at Room Temperature) were 33.33 and 12.50, respectively. For the same compound, the “Maximum Drug Concentration in single alcohol: PG” value was 14.29 in series [2] (Solubility at 35 C) and 6.25 in series [2] (Solubility at Room Temperature). In addition, the “Log P” value in series [3] is 4.16. In addition, the “Flurbiprofen % W/W” value in series [4] (Flurbiprofen 1 gm, EtOH 2 gm) came to 20.0 % W/W; in series [4] (Flurbiprofen 1 gm, IPA 3 gm), 14.3 % W/W; in series [4] (Flurbiprofen 1 gm, PEG 2 gm) it was 25.0 % W/W; in series [4] (Flurbiprofen 1 gm, PG 6 gm) it was 12.5 % W/W; in series [4] (setting [7]) it was 18.2 % W/W; in series [4] (setting [8]) it was 25.0 % W/W. In addition, the “Flurbiprofen % W/W” value in series [4] (setting [9]) worked out at 15.4 % W/W; in series [4] (setting [10]) it was 12.5 % W/W; in series [4] (setting [11]) it was 11.8 % W/W; in series [4] (setting [12]), 14.3 % W/W; in series [4] (setting [13]), 18.8 % W/W; in series [4] (setting [14]) it was 13.6 % W/W. Also, the entries for the “Flurbiprofen % W/W” value in series [4] (setting [15]), in series [4] (setting [16]) and in series [4] (setting [17]) were 17.6 % W/W, 13.6 % W/W and 15.4 % W/W, respectively. Besides, the “Water Observed” value is reported as 2 gm in series [4] (Flurbiprofen 1 gm, EtOH 2 gm); 3 gm in series [4] (Flurbiprofen 1 gm, IPA 3 gm); 1 gm in series [4] (Flurbiprofen 1 gm, PEG 2 gm); 1 gm in series [4] (Flurbiprofen 1 gm, PG 6 gm). The “Super-solvent Effect” value in series [4] (setting [7]) came out at 37.1; in series [4] (setting [8]) it was 0.0; in series [4] (setting [9]), 135.7; in series [4] (setting [10]), 160.0; in series [4] (setting [11]), 104.5; in series [4] (setting [12]), 140.0. Further, the “Super-solvent Effect” value in series [4] (setting [13]) was determined as 60.0; in series [4] (setting [14]), 90.5; in series [4] (setting [15]), 30.8; in series [4] (setting [16]), 117.1; in series [4] (setting [17]), 81.5.
As for `CCCCCC/C(C=O)=C\c1ccccc1` [HCA, hexylcinnamaldehyde], the stimulation index in series [5] (35% HCA in ISW-AP-01 placebo) came out at 4.6; in series [5] (35% HCA in ethanol), 4.4.
Consider `CC(C)Cc1ccc(C(C)C(=O)O)cc1` (stereo not shown) [Ibuprofen], for which the “prodrug generation upon storage (HPLC)” value in series [6] (composition of 15% ibuprofen, about 60% ethanol, 3% glycerin, 2% propylene glycol stored for 3 months at 25 C) was “A new peak (i.e., the prodrug) distinct from the ibuprofen peak was detected”. Moreover, in series [6] (compositions of ibuprofen with ethanol as solvent (FIG. 7)), the “effect of Drug concentration and pH on prodrug generation” value was “higher pH (e.g. 5.0) substantially decreases the rate of prodrug formation”. Also, the “rate of prodrug generation” value is given as “approximately 0.05 % per day” in series [6] (pH 3.7, composition of 15% ibuprofen, about 60% ethanol, 3% glycerin) and “about 0.025 % per day” in series [6] (pH 5, composition of 15% ibuprofen, about 60% ethanol, 3% glycerin). For the same compound, the “Maximum Drug Concentration in single alcohol: EtOH” value in series [2] (Solubility at 35 C) is 50.00; in series [2] (Solubility at Room Temperature), 37.04. Besides, the figures for the “Maximum Drug Concentration in single alcohol: IPA” value in series [2] (Solubility at 35 C) and in series [2] (Solubility at Room Temperature) were 47.62 and 35.71, respectively. Besides, the “Maximum Drug Concentration in single alcohol: PEG” value in series [2] (Solubility at 35 C) worked out at 25.00; in series [2] (Solubility at Room Temperature) it was 22.22. Moreover, the “Maximum Drug Concentration in single alcohol: PG” value in series [2] (Solubility at 35 C) came to 20.00; in series [2] (Solubility at Room Temperature), 15.38. Moreover, the Super-solvent Effect on water in series [4] (Ibuprofen 2 gm, EtOH 1 gm, IPA 1.1 gm) came to 11.4%; in series [4] (Ibuprofen 2 gm, PEG 3 gm, EtOH 1 gm), 45.9%; in series [4] (Ibuprofen 2 gm, PEG 3 gm, IPA 1.1 gm) it was 55%; in series [4] (Ibuprofen 2 gm, PG 4 gm, EtOH 1 gm), 65.8%; in series [4] (Ibuprofen 2 gm, PG 4 gm, IPA 1.1 gm), 65.3%; in series [4] (Ibuprofen 2 gm, PG 4 gm, PEG 3 gm), 56%. Moreover, the Super-solvent Effect on water was 40.4% in series [4] (Ibuprofen 3 gm, PEG 3 gm, EtOH 1 gm, IPA 1.1 gm); 63.2% in series [4] (Ibuprofen 3 gm, PG 4 gm, EtOH 1 gm, IPA 1.1 gm); 57.5% in series [4] (Ibuprofen 3 gm, PG 4 gm, PEG 3 gm, EtOH 1 gm); 57.2% in series [4] (Ibuprofen 3 gm, PG 4 gm, PEG 3 gm, IPA 1.1 gm).
